Results taken from patent EP0462831B1, “Bicyclic pyran derivatives and their use as inhibitors of 5-lipoxygenase” (ZENECA LIMITED, priority 1990, dated 1991).

Experiments:
5-LO [1] = molecular target: T1, 5-LO (Homo sapiens, UniProt P09917); test: Test b): heparinised human blood challenged with calcium ionophore A23187, radioimmunoassay of LTB₄; type: cell-based; conditions: A23187 challenge, read-out: IC₅₀ (LTB₄)
T1 construct: incubating a test compound with heparinised human blood, prior to challenge with the calcium ionophore A23187; endogenous in cells; host or cells: blood cells in heparinised human whole blood
T1 sequence (P09917 1-674): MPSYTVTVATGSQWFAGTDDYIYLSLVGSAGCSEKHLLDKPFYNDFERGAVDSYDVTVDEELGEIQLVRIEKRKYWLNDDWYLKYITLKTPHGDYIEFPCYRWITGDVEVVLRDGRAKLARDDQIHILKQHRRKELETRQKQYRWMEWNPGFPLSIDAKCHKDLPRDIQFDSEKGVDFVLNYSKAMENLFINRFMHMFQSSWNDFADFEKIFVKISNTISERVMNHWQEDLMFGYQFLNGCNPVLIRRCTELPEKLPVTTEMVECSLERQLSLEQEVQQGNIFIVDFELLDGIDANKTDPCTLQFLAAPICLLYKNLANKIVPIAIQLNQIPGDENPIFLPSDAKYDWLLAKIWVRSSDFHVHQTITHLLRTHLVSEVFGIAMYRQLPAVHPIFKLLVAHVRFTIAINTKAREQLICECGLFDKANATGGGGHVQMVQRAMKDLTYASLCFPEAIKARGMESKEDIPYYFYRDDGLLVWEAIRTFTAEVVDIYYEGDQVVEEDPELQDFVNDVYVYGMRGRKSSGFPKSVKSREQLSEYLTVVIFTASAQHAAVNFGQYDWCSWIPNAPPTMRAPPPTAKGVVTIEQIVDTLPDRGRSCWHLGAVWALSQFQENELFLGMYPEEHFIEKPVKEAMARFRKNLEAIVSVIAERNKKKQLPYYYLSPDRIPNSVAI
Protocol: As stated previously, the novel compounds of the formula I are inhibitors of the enzyme 5-LO. […] This test provides a measure of the intrinsic inhibitory properties of a test compound against soluble 5-LO in an extracellular environment. • b) An in vitro assay system involving incubating a test compound with heparinised human blood, prior to challenge with the calcium ionophore A23187 and then indirectly measuring the inhibitory effects on 5-LO by assaying the amount of LTB₄ using specific radioimmunoassays described by Carey and Forder (F. Carey and R.A. Forder, Prostaglandins, Leukotrienes Med., 1986, 22, 57; Prostaglandins, 1984, 28, 666; Brit. J. Pharmacol. 1985, 84, 34P) which involve the use of a protein-LTB₄ conjugate produced using the procedure of Young et alia (Prostaglandins, 1983, 26(4), 605-613). The effects of a test compound on the enzyme cyclooxygenase (which is involved in the alternative metabolic pathway for arachidonic acid and gives rise to prostaglandins, thromboxanes and related metabolites) may be measured at the same time using the specific radioimmunoassay for thromboxane B₂(TxB₂) described by Carey and Forder (see above). This test provides an indication of the effects of a test compound against 5-LO and also cyclooxygenase in the presence of blood cells and proteins. […]

5-LO [2] = molecular target: T2, 5-LO (Rattus norvegicus, UniProt P12527); test: Test g): zymosan-induced liberation of LTB₄ in a subcutaneous air pouch; type: in vivo, rats; conditions: oral, 3 hours, read-out: oral ED₅₀(LTB₄)
T2 construct: liberation of LTB₄ induced by zymosan within an air pouch generated within the subcutaneous tissue of the back of male rats; from tissue; host or cells: subcutaneous air pouch of male rats (in vivo)
T2 sequence (P12527 1-673): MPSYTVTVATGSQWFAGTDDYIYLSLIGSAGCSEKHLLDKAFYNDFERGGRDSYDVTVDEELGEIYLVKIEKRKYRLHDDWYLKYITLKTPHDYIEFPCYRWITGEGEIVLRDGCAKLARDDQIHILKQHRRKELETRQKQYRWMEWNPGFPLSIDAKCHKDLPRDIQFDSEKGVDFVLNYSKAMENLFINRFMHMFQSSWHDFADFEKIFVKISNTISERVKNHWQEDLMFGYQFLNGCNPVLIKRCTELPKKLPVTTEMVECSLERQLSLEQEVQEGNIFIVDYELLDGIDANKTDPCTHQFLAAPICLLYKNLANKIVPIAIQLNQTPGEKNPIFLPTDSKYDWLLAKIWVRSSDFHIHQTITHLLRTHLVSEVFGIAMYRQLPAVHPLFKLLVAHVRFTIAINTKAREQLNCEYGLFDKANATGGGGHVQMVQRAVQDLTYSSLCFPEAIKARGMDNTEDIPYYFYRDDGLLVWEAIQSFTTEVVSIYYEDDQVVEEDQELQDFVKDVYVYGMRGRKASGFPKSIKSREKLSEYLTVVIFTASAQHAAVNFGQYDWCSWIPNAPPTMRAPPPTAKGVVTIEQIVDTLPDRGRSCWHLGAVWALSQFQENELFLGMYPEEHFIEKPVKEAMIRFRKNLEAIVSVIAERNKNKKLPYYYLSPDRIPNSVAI

IC50 (5-LO [1]): 50 nM
ED50 (5-LO [2]): < 2 mg/kg
SMILES: COC1(c2cccc(Sc3ccc4c(c3)n(C)c(=O)n4C)c2)CCOCC1 [Example 1, 4-[3-(1,3-dimethyl-2-oxo-2,3-dihydrobenzimidazol-5-ylthio)phenyl]-4-methoxy-tetrahydropyran]
